Converted amounts (≈) assume the structure as drawn. “And” between values parts separate entries of the source, which are not always exact repeats. Equal entries are not always repeated.

Experiment [1] relates to Caenorhabditis elegans (N2 wild-type). Put plainly: whole plant or invertebrate. Format: in vivo.
For experiment [2] the test system is unchanged. As to conditions: in vivo.
The next experiment deals with Caenorhabditis elegans. The settings on record: in vivo.
The subject of experiment [3] is Caenorhabditis elegans mutant strain Daf-16 (mu86). The settings on record: in vivo.
For experiment [4], the system named is Caenorhabditis elegans mutant strain Daf-2 (e1370). As to conditions: in vivo.
Experiment [5] relates to Caenorhabditis elegans mutant strain Daf-16 (mu86). As to conditions: in vivo. The source holds these as a separate data set.
The test system of experiment [6] is Caenorhabditis elegans mutant strain Daf-2 (e1370). The settings on record: in vivo. This is another data set of the same source.

As usually defined, the EC50 is the concentration that produces a half-maximal response. High values mean weaker potency, low ones greater potency. Compound `O=C1C=C2C(=CCOC2O)O1` (stereo not shown) [PAT, Patulin] showed an EC50 in experiment [1] (Caenorhabditis elegans, 24 h) of 44.2 µg/mL (≈ 287 µM). Also, in experiment [1] (in vivo), the body length ratio was 64.45% and 55.55%; the “concentration at which nematode's body length is significantly confined (P<0.001)” value was 25 µg/mL. Moreover, in experiment [2], the “concentration at which nematode's spawning rate is significantly confined (P<0.001)” value is 5 µg/mL and the spawning rate is on record as 49.41%. In the experiment on Caenorhabditis elegans, the “relative fluorescence intensity ratio (ROS)” value is 136.92% and 149.43%. Moreover, the “body length ratio of Daf-16 mutant strain compared with N2 wild type” value in experiment [3] is given as “higher body length ratio than the N2 wild type”. The “effect of Daf-2 gene silencing on developmental toxicity” value in experiment [4] is “does not slow down the developmental toxicity”. In experiment [5], the “spawning rate of Daf-16 mutant strain compared with N2 wild-type” value is reported as “higher spawning rate than the N2 wild-type”. Also, the “spawning rate of Daf-2 mutant strain compared with N2” value in experiment [6] is recorded as “no significant difference from N2”.
